# Test results published in PubChem BioAssay AID330 (DTP/NCI, 2004).
# Values joined by “and” are separate entries in the source; they are usually repeats but may differ in a detail not shown here. Equal entries are not always repeated. Inconclusive results and toxic doses are left out.
# System: P388 leukemia ip, CD2F1 mice, survival T/C
# Assay: NCI In Vivo Anticancer Drug Screen. Data for tumor model P388 Leukemia (intraperitoneal) in CD2F1 (CDF1) mice
# Conditions: endpoint: median survival time, higher = longer survival
# How it was run: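 Mice carrying the transplanted tumor received test compound or vehicle. Survival was recorded in each group, and the value is the treated-group measurement divided by that of the vehicle-treated control group.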
# [1] = dose: 100.0 mg/kg/injection, schedule: Q01DX001 (ip), vehicle: Klucel (hydroxypropylcellulose) (HPC)
# [2] = dose: 200.0 mg/kg/injection, schedule: Q01DX001 (ip), vehicle: Klucel (hydroxypropylcellulose) (HPC)
# [3] = dose: 50.0 mg/kg/injection, schedule: Q04DX003 (ip), vehicle: saline with Tween-80
# [4] = dose: 100.0 mg/kg/injection, schedule: Q04DX003 (ip), vehicle: saline with Tween-80
# [5] = dose: 200.0 mg/kg/injection, schedule: Q04DX003 (ip), vehicle: saline with Tween-80
# [6] = dose: 50.0 mg/kg/injection, schedule: Q01DX005 (ip), vehicle: saline with Tween-80
# [7] = dose: 100.0 mg/kg/injection, schedule: Q04DX003 (ip), vehicle: Klucel (hydroxypropylcellulose) (HPC)
# [8] = dose: 25.0 mg/kg/injection, schedule: Q01DX009 (ip), vehicle: saline with Tween-80
# [9] = dose: 50.0 mg/kg/injection, schedule: Q01DX009 (ip), vehicle: saline with Tween-80
# [10] = dose: 100.0 mg/kg/injection, schedule: Q01DX009 (ip), vehicle: saline with Tween-80
# [11] = dose: 200.0 mg/kg/injection, schedule: Q01DX009 (ip), vehicle: saline with Tween-80
# [12] = dose: 100.0 mg/kg/injection, schedule: Q01DX005 (ip), vehicle: saline with Tween-80
# [13] = dose: 200.0 mg/kg/injection, schedule: Q01DX005 (ip), vehicle: saline with Tween-80
smiles,measurement,setting,value
CCOP(O)(=S)OCC.[Sm],T/C,[1],88 % of control
same,T/C,[2],88 % of control
same,T/C,"dose: 400.0 mg/kg/injection, schedule: Q01DX001 (ip), vehicle: Klucel (hydroxypropylcellulose) (HPC)",94 % of control
CN(C=O)CCN(C)C=O,T/C,"dose: 100.0 mg/kg/injection, schedule: Q04DX002 (ip), vehicle: saline",96 % of control
same,T/C,"dose: 200.0 mg/kg/injection, schedule: Q04DX002 (ip), vehicle: saline",99 % of control
same,T/C,"dose: 400.0 mg/kg/injection, schedule: Q04DX002 (ip), vehicle: saline",104 % of control
CCCCCCC[n+]1ccccc1C#N,T/C,"dose: 12.5 mg/kg/injection, schedule: Q04DX003 (ip), vehicle: saline with Tween-80",103 % of control and 107 % of control
same,T/C,"dose: 25.0 mg/kg/injection, schedule: Q04DX003 (ip), vehicle: saline with Tween-80",100 % of control and 103 % of control
same,T/C,[3],103 % of control
same,T/C,[4],100 % of control and 118 % of control
same,T/C,[5],99 % of control
O=C1C=CC(=O)c2nc3ccccc3nc21,T/C,"dose: 1.56 mg/kg/injection, schedule: Q01DX009 (ip), vehicle: distilled water + Tween-80",87 % of control
same,T/C,"dose: 3.12 mg/kg/injection, schedule: Q01DX009 (ip), vehicle: distilled water + Tween-80",103 % of control
same,T/C,"dose: 6.25 mg/kg/injection, schedule: Q01DX009 (ip), vehicle: distilled water + Tween-80",105 % of control and 106 % of control
COc1cc2c[n+](C)c(-c3ccc(Cl)c(Cl)c3)c(OC)c2cc1OC,T/C,"dose: 12.5 mg/kg/injection, schedule: Q04DX003 (ip), vehicle: saline",101 % of control
same,T/C,"dose: 25.0 mg/kg/injection, schedule: Q04DX003 (ip), vehicle: saline",100 % of control
same,T/C,"dose: 50.0 mg/kg/injection, schedule: Q04DX003 (ip), vehicle: saline",100 % of control
CC(=O)OCc1ccncc1,T/C,"dose: 12.5 mg/kg/injection, schedule: Q01DX009 (ip), vehicle: distilled water + Tween-80",95 % of control
same,T/C,"dose: 25.0 mg/kg/injection, schedule: Q01DX009 (ip), vehicle: distilled water + Tween-80",101 % of control
same,T/C,"dose: 50.0 mg/kg/injection, schedule: Q01DX009 (ip), vehicle: distilled water + Tween-80",102 % of control
same,T/C,"dose: 100.0 mg/kg/injection, schedule: Q01DX009 (ip), vehicle: distilled water + Tween-80",110 % of control
same,T/C,"dose: 200.0 mg/kg/injection, schedule: Q01DX009 (ip), vehicle: distilled water + Tween-80",100 % of control
same,T/C,"dose: 400.0 mg/kg/injection, schedule: Q01DX009 (ip), vehicle: distilled water + Tween-80",92 % of control
O=C(CNC(=O)c1ccc(Cl)cc1)c1ccc(Br)cc1,T/C,"dose: 12.5 mg/kg/injection, schedule: Q01DX005 (ip), vehicle: saline with Tween-80",94 % of control
same,T/C,"dose: 25.0 mg/kg/injection, schedule: Q01DX005 (ip), vehicle: saline with Tween-80",92 % of control
same,T/C,[6],92 % of control
C=COC(=O)CCCCCCCC,T/C,[7],103 % of control
same,T/C,"dose: 200.0 mg/kg/injection, schedule: Q04DX003 (ip), vehicle: Klucel (hydroxypropylcellulose) (HPC)",105 % of control
same,T/C,"dose: 400.0 mg/kg/injection, schedule: Q04DX003 (ip), vehicle: Klucel (hydroxypropylcellulose) (HPC)",95 % of control
IC1=CC2CCC(C1)C2 (stereo not drawn),T/C,[8],100 % of control and 103 % of control
same,T/C,[9],104 % of control and 116 % of control and 93 % of control
same,T/C,[10],101 % of control and 109 % of control
same,T/C,[11],102 % of control and 122 % of control and 96 % of control
O=C(O)c1cccc(-n2ncc(Cl)c(Cl)c2=O)c1,T/C,"dose: 12.5 mg/kg/injection, schedule: Q01DX009 (ip), vehicle: saline with Tween-80",113 % of control
same,T/C,[8],108 % of control
same,T/C,[9],99 % of control and 104 % of control
same,T/C,[11],88 % of control
CC1CN1CC(O)C(O)CN1CC1C (stereo not drawn),T/C,"dose: 0.01 mg/kg/injection, schedule: Q04DX003 (ip), vehicle: saline",109 % of control
same,T/C,"dose: 0.02 mg/kg/injection, schedule: Q04DX003 (ip), vehicle: saline",104 % of control
same,T/C,"dose: 0.15 mg/kg/injection, schedule: Q04DX003 (ip), vehicle: saline",160 % of control
same,T/C,"dose: 0.3 mg/kg/injection, schedule: Q04DX003 (ip), vehicle: saline",170 % of control
same,T/C,"dose: 0.5 mg/kg/injection, schedule: Q04DX003 (ip), vehicle: saline",160 % of control
same,T/C,"dose: 0.6 mg/kg/injection, schedule: Q04DX003 (ip), vehicle: saline",170 % of control
same,T/C,"dose: 0.62 mg/kg/injection, schedule: Q04DX003 (ip), vehicle: saline",154 % of control
same,T/C,"dose: 1.0 mg/kg/injection, schedule: Q04DX003 (ip), vehicle: saline",185 % of control
same,T/C,"dose: 1.25 mg/kg/injection, schedule: Q01DX009 (ip), vehicle: saline with Tween-80",272 % of control
same,T/C,"dose: 1.25 mg/kg/injection, schedule: Q04DX003 (ip), vehicle: saline",163 % of control
same,T/C,"dose: 2.0 mg/kg/injection, schedule: Q04DX003 (ip), vehicle: saline",240 % of control
same,T/C,"dose: 2.5 mg/kg/injection, schedule: Q01DX009 (ip), vehicle: saline with Tween-80",95 % of control
same,T/C,"dose: 2.5 mg/kg/injection, schedule: Q01DX009 (ip), vehicle: saline",222 % of control
same,T/C,"dose: 2.5 mg/kg/injection, schedule: Q04DX003 (ip), vehicle: saline",222 % of control
same,T/C,"dose: 3.0 mg/kg/injection, schedule: Q04DX003 (ip), vehicle: saline",172 % of control
same,T/C,"dose: 3.3 mg/kg/injection, schedule: Q04DX003 (ip), vehicle: saline",212 % of control
same,T/C,"dose: 5.0 mg/kg/injection, schedule: Q01DX009 (ip), vehicle: saline",122 % of control
same,T/C,"dose: 5.0 mg/kg/injection, schedule: Q04DX003 (ip), vehicle: saline",231 % of control and 183 % of control and 230 % of control
same,T/C,"dose: 6.0 mg/kg/injection, schedule: Q04DX003 (ip), vehicle: saline",268 % of control
same,T/C,"dose: 7.5 mg/kg/injection, schedule: Q04DX003 (ip), vehicle: saline",272 % of control
same,T/C,"dose: 10.0 mg/kg/injection, schedule: Q04DX003 (ip), vehicle: saline",268 % of control
same,T/C,"dose: 63.0 micrograms/kg/injection, schedule: Q04DX003 (ip), vehicle: saline",100 % of control
same,T/C,"dose: 125.0 micrograms/kg/injection, schedule: Q04DX003 (ip), vehicle: saline",100 % of control
same,T/C,"dose: 250.0 micrograms/kg/injection, schedule: Q04DX003 (ip), vehicle: saline",104 % of control
CCc1cccc(NC(=O)Sc2ccc(O)cc2)c1,T/C,[9],108 % of control
same,T/C,[10],106 % of control
Nc1ccc(S(=O)(=O)c2ccc(NCC(=O)O)cc2)cc1,T/C,[9],100 % of control
same,T/C,[3],100 % of control
same,T/C,[10],95 % of control
same,T/C,[4],100 % of control
same,T/C,[11],86 % of control
same,T/C,[5],100 % of control
CCOC(=O)/C=C1/C(=O)OC2C1OC1OC(C)(C)OC12 (stereo not drawn),T/C,"dose: 3.75 mg/kg/injection, schedule: Q01DX005 (ip), vehicle: saline with Tween-80",98 % of control
same,T/C,"dose: 7.5 mg/kg/injection, schedule: Q01DX005 (ip), vehicle: saline with Tween-80",97 % of control
O=S1(=O)N=C(c2ccccc2)CC(c2ccccc2)N1 (stereo not drawn),T/C,[9],100 % of control
same,T/C,[10],90 % of control
same,T/C,[11],90 % of control
NS(=O)(=O)c1cc([N+](=O)[O-])c(SSc2sc(S(N)(=O)=O)cc2[N+](=O)[O-])s1,T/C,"dose: 25.0 mg/kg/injection, schedule: Q04DX003 (ip), vehicle: Klucel (hydroxypropylcellulose) (HPC)",104 % of control
same,T/C,"dose: 50.0 mg/kg/injection, schedule: Q04DX003 (ip), vehicle: Klucel (hydroxypropylcellulose) (HPC)",101 % of control
same,T/C,[1],106 % of control
same,T/C,[7],107 % of control
same,T/C,[2],99 % of control
CCN(CC)c1ccc(NC2=CC(=O)C(Nc3ccc(N(CC)CC)cc3)=CC2=O)cc1,T/C,[6],91 % of control
same,T/C,[12],89 % of control
same,T/C,[13],89 % of control
Cc1cc(C)c(C#N)c(SCC#CCSc2nc(C)cc(C)c2C#N)n1,T/C,"dose: 1.5 mg/kg/injection, schedule: Q01DX005 (ip), vehicle: saline with Tween-80",103 % of control
same,T/C,"dose: 3.0 mg/kg/injection, schedule: Q01DX005 (ip), vehicle: saline with Tween-80",103 % of control
same,T/C,"dose: 6.0 mg/kg/injection, schedule: Q01DX005 (ip), vehicle: saline with Tween-80",94 % of control
same,T/C,"dose: 6.25 mg/kg/injection, schedule: Q01DX005 (ip), vehicle: saline with Tween-80",89 % of control
same,T/C,[12],91 % of control
same,T/C,[13],91 % of control
